This note sets out measurements from paper PMC11022681 (Journal of the American Chemical Society, 2023).

The test can be described thus: Kinetic inertness: transmetalation with excess Zn2+. The class given is physicochemical. The settings on record: 25 equivalents of Zn2+, 37 °C, pH 6.0 MES buffer.

For Mn-PyC3A, the “pseudo-first-order rate constant of transmetalation” value is 5.5 ± 0.4 ×10^−4 s^−1.
